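All cell lines were grown in 96-well plates and treated with compound for 48 hours. GI50 is the concentration that inhibits growth by half.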 Calls of active or inactive are those of the source. Cut-off read from the data, not from the text of the source: active = GI50 up to about 1.1 µM and inactive = higher.
Tests used:
Test in all cases: NCI anticancer screen, dose series, 48 h
BT-549 = system: BT-549
Hs-578T = system: Hs-578T
DLD-1 = system: DLD-1
DMS-114 = system: DMS-114
KM-20L2 = system: KM-20L2
LXFL 529 = system: LXFL 529
M19-MEL = system: M19-MEL
XF498 = system: XF498

SMILES	GI50 (BT-549)	GI50 (Hs-578T)	other results
Nc1nc(SCCc2ccccc2)c2nc[nH]c2n1	47.3 µM (inactive)	64 µM (inactive)	–
Cc1cc(O)c(C=O)c2c1C(=O)Oc1c(CO)c(O)c3c(c1O2)C(O)OC3=O (stereo not given) [SLAZINIC ACID]	> 100 µM (inactive)	31.6 µM (inactive)	–
O=c1oc2ccc(Cl)cc2cc1-c1cn2ccsc2n1	24.1 µM (inactive)	76.4 µM (inactive)	–
O=S(=O)(c1cccc(N=C=S)c1)c1cccc(N=C=S)c1	–	–	GI50 (DLD-1): 19.2 µM (inactive); GI50 (DMS-114): 15.5 µM (inactive); GI50 (KM-20L2): 31.5 µM (inactive); GI50 (LXFL 529): 15.2 µM (inactive); GI50 (M19-MEL): > 10 µM (inactive)
COC(=O)CCCC(=O)O	> 100 µM (inactive)	> 100 µM (inactive)	–
O=C(O)C1CC2(C1)CC(C(=O)O)C2 (stereo not given)	> 100 µM (inactive)	> 100 µM (inactive)	–
CN1C2CCC1CC(=CCOC(c1ccc(F)cc1)c1ccc(F)cc1)C2	16.3 µM (inactive)	11.9 µM (inactive)	–
CC#CS(=O)(=O)c1ccccc1	8.45 µM (inactive)	17.2 µM (inactive)	–
COc1cccc(N(CN2C(=O)CCC2C(=O)O)C(C)=O)c1 (stereo not given)	–	> 100 µM (inactive)	–
OCCN(C1=NCCN1)/[N+](=C/c1ccccc1O)[CH-]c1ccccc1O	37.8 µM (inactive)	> 100 µM (inactive)	–
CCCCn1c2c(n(CCCC)c1=S)-c1c(n(CCCC)c(=S)n1CCCC)S[Se][Se]S2	4.55 µM (inactive)	5.25 µM (inactive)	–
OCCN(CCO)c1nc(N2CCCCC2)c2nc(N(CCO)CCO)nc(N3CCCCC3)c2n1 [DIPYRIDAMOLE]	–	31.8 µM (inactive)	–
CCc1n[nH]c(=O)n1/N=C/c1ccc(/C=N/n2c(CC)n[nH]c2=O)cc1	> 100 µM (inactive)	> 100 µM (inactive)	–
c1ccc2c3nnc(c2c1)SCCSCCCSCCS3	–	32.4 µM (inactive)	–
COC(=O)c1ccc(C)cc1CC1Cc2ccc(C)cc2C1=O (stereo not given)	12.2 µM (inactive)	15 µM (inactive)	–
Nc1nc(CCl)nc(Nc2ccccc2)n1	–	–	GI50 (DLD-1): 36.9 µM (inactive); GI50 (DMS-114): 18.4 µM (inactive); GI50 (KM-20L2): 18.6 µM (inactive); GI50 (LXFL 529): 14.8 µM (inactive); GI50 (M19-MEL): 29.4 µM (inactive)
CN[C@@H](Cc1cccc2ccccc12)C(=O)N[C@@H](CC(C)C)B(O)O	< 0.01 µM (active)	0.0143 µM (active)	–
O=C(Nc1ccccc1)c1cc2ccccc2c(/N=N\c2cccc([N+](=O)[O-])c2)c1O	> 100 µM (inactive)	21.2 µM (inactive)	–
OCc1ccc2c(c1)CC1(C2)Cc2cc3c(cc2C1)CCC3	2.81 µM (inactive)	4.02 µM (inactive)	–
CCc1nc(N)nc(N)c1-c1ccc([N+](=O)[O-])c(NCc2ccccc2)c1	16.9 µM (inactive)	13.8 µM (inactive)	–
COI1NC(=O)c2ccccc21	–	> 100 µM (inactive)	–
COc1ccc2c(c1)CCc1c-2n(CCN2CCOCC2)c2ccc(OC)cc12	> 100 µM (inactive)	61.7 µM (inactive)	–
CCCCCn1c(=O)c2c(=O)[nH][nH]c2c2ccccc21	> 100 µM (inactive)	> 100 µM (inactive)	–
NC1=C(NC(=O)Cc2ccccc2F)C(=O)c2ccccc2C1=O	–	–	GI50 (DLD-1): 16.6 µM (inactive); GI50 (DMS-114): 41.8 µM (inactive); GI50 (KM-20L2): 40.7 µM (inactive); GI50 (M19-MEL): 4.5 µM (inactive)
COc1ccc2c3c([nH]c2c1[N+](=O)[O-])C(C)N(C(=O)/C=C/c1ccccc1)CC3 (stereo not given)	–	–	GI50 (KM-20L2): 4.18 µM (inactive); GI50 (LXFL 529): 5.9 µM (inactive)
CC1=C[C@H](O)[C@@]2(C)[C@@H]([C@@H]1C)[C@H]1CC[C@@H]3[C@@]4(C)CC[C@H](O)C(C)(C)[C@@H]4CC[C@@]3(C)[C@]1(C)C[C@@H]2O	23.9 µM (inactive)	22.3 µM (inactive)	–
CCOC(=O)NC(C(=O)OCC)C(F)(F)F (stereo not given)	–	> 100 µM (inactive)	–

SMILES	GI50 (BT-549)	GI50 (Hs-578T)	other results
CC(C)c1c(P(=O)(c2ccccc2)c2ccccc2)n(C)c2ccccc12	> 100 µM (inactive)	> 100 µM (inactive)	–
Cc1ccc(S(=O)(=O)N2CCNCCN(S(=O)(=O)c3ccc(C)cc3)CCNCC2)cc1	19.1 µM (inactive)	17.8 µM (inactive)	–
c1cnn(CN(Cn2cccn2)Cn2cccn2)c1	–	–	GI50 (DLD-1): > 100 µM (inactive); GI50 (DMS-114): > 100 µM (inactive); GI50 (KM-20L2): > 100 µM (inactive); GI50 (M19-MEL): > 100 µM (inactive); GI50 (XF498): > 100 µM (inactive)
Cn1c(NC(=O)NC23CC4CC(CC(C4)C2)C3)nc2ccccc21	–	–	GI50 (DLD-1): > 100 µM (inactive); GI50 (KM-20L2): > 100 µM (inactive); GI50 (LXFL 529): 86.1 µM (inactive); GI50 (M19-MEL): 57.5 µM (inactive)
CCCCCCCCCCCCCCCCCCNC(=O)C(N)Cc1ccc(OCc2ccccc2)cn1 (stereo not given)	23.4 µM (inactive)	21.6 µM (inactive)	–
O=C1Oc2ccccc2C(=O)/C1=C\Nc1nc(-c2ccc(O)c(O)c2)cs1	5.77 µM (inactive)	15.3 µM (inactive)	–
O=C(/C=C/c1ccccc1)N1CCCCC1	> 100 µM (inactive)	> 100 µM (inactive)	–
O=C(O)C(O)(c1ccc(-c2ccccc2)cc1)c1ccc(-c2ccccc2)cc1	20.5 µM (inactive)	–	–
CC1CC/C(=C\c2ccc(Cl)cc2)C2OC(N)=C(C#N)C(c3ccc(Cl)cc3)=C12 (stereo not given)	15.2 µM (inactive)	15.6 µM (inactive)	–
O=c1[nH]nc(-c2ccccc2)c2[nH]c3c4ccccc4ccc3c12	–	1.79 µM (inactive)	–
C[C@@H]1C(=O)CC2(O)[C@@]13C[C@@H](OC(=O)[C@@H]3O)[C@@H](C)[C@@]21COC1=O (stereo not given in full)	> 100 µM (inactive)	> 100 µM (inactive)	–
CCNC(=O)c1ccc(C)c(/N=N/N(C)C)c1	–	–	GI50 (DLD-1): > 100 µM (inactive); GI50 (KM-20L2): > 100 µM (inactive); GI50 (LXFL 529): > 100 µM (inactive); GI50 (M19-MEL): > 100 µM (inactive)
COC(=O)C1(CCC(C)=O)CCCCCC1=O (stereo not given)	> 100 µM (inactive)	–	–
CC1(C)/C(=N\Nc2ccc([N+](=O)[O-])cc2[N+](=O)[O-])C2CCC1C2 (stereo not given)	> 100 µM (inactive)	5.41 µM (inactive)	–
Cc1ccc(/N=C2N=C(Cl)/C(=C\c3ccccc3)N\2)cc1	> 100 µM (inactive)	> 100 µM (inactive)	–
CC(C)[Si](OC1=C(C(=O)N(C)c2ccccc2Cl)CCCCC1)(C(C)C)C(C)C	> 100 µM (inactive)	–	–
C=CC[C@]1(/C=N/O)CN(S(=O)(=O)CC[Si](C)(C)C)C[C@H]2CC=CC[C@H]21	28.5 µM (inactive)	–	–
OC1c2ccccc2[C@@H]2[C@H]1[C@@H](c1ccccc1)C1(Cc3ccccc3C1O)[C@H]2c1ccccc1 (stereo not given in full)	14.7 µM (inactive)	6.93 µM (inactive)	–
COC(=O)C1=CC(=O)OC1(OO)c1ccc(Br)cc1 (stereo not given)	> 100 µM (inactive)	–	–
O=[N+]([O-])c1ccc(C2=NN(c3ccccc3)C[N+](c3ccc(Br)cc3)=N2)cc1	–	–	GI50 (DLD-1): > 100 µM (inactive); GI50 (KM-20L2): > 100 µM (inactive); GI50 (LXFL 529): 63.5 µM (inactive); GI50 (M19-MEL): > 100 µM (inactive)
Cc1ccc(OCC2OC(n3cnc4c(Cl)nc(Cl)nc43)CC2Oc2ccc(C)cc2)cc1 (stereo not given)	2.17 µM (inactive)	1.9 µM (inactive)	–
CN1CCC2(CC1)SSC1(CCN(C)CC1)S2	23.9 µM (inactive)	> 100 µM (inactive)	–
CCOc1c2c(cc3c1C(=O)c1c(OC)cccc1C3=O)C=C(OC)CC2	–	> 25 µM (inactive)	–
O=c1cc(NNc2ccc(F)cc2)[nH]c(=O)[nH]1	13.6 µM (inactive)	28.4 µM (inactive)	–
CCOC(=O)/C(C#N)=C/c1ccc(SCc2ccco2)c([N+](=O)[O-])c1	> 100 µM (inactive)	> 100 µM (inactive)	–
N#CC(C#N)/N=N/c1ccc(-c2nc3ccccc3[nH]2)cc1	11 µM (inactive)	52 µM (inactive)	–
Nc1nc(N)c(-c2ccccc2)c(C(=O)Nc2ccccc2)n1	–	–	GI50 (DLD-1): > 100 µM (inactive); GI50 (KM-20L2): > 100 µM (inactive); GI50 (M19-MEL): > 100 µM (inactive); GI50 (XF498): > 100 µM (inactive)

Source: ChEMBL document CHEMBL1201862, “PubChem BioAssay data set” (2004)
